Key:
[1] = Relative crystallographic stability of the crystal forms; type: physicochemical; details: comparison of crystal forms A, B and C
[2] = Transition of crystal form B into crystal form A in a heated acetone/water slurry, followed by IR spectrum; type: physicochemical; details: suspended in acetone (51.2 g) and water (17.1 g), stirred while heating at 40° C.
Method: Crystal form B of 3-(2,4-dichlorobenzyl)-2-methyl-N-(pentylsulfonyl)-3H-benzimidazole-5-carboxamide (5.0 g) was suspended in a mixed solvent consisting of acetone (51.2 g) and water (17.1 g), and the resulting slurry was stirred while heating at 40° C. About 4 hours later, crystals in the slurry completely transitioned into those with the IR spectrum that agreed with the spectrum of crystal form A of 3-(2,4-dichlorobenzyl)-2-methyl-N-(pentylsulfonyl)-3H-benzimidazole-5-carboxamide.

Row | time until crystals in the slurry completely transitioned into crystal form A [2] | SMILES | crystallographic stability relative to the other crystal forms ([1]; listed as crystal form A) | crystallographic stability relative to the other crystal forms ([1]; listed as crystal form B)
1 | – | CCCCCS(=O)(=O)NC(=O)c1ccc2nc(C)n(Cc3ccc(Cl)cc3Cl)c2c1 [Crystal form A, 3-(2,4-dichlorobenzyl)-2-methyl-N-(pentylsulfonyl)-3H-benzimidazole-5-carboxamide] | crystallographically more stable than crystal form B and C | –
2 | About 4 hours | CCCCCS(=O)(=O)NC(=O)c1ccc2nc(C)n(Cc3ccc(Cl)cc3Cl)c2c1 [Crystal form B, 3-(2,4-dichlorobenzyl)-2-methyl-N-(pentylsulfonyl)-3H-benzimidazole-5-carboxamide] | – | not as crystallographically stable as crystal form A

Reference: US6703410B1, “Crystal forms of 3-(2,4-dichlorobenzyl)-2-methyl-n-(pentylsulfonyl)-3h-benzimidazole-5-carboxamide” (Fujisawa Pharmaceutical Co., Ltd., priority 1998, dated 2004)
